Reference: US9169254B2, “Spiroimidazolone derivative” (Chugai Seiyaku Kabushiki Kaisha, priority 2009, dated 2015)

target: T1, human PTH1 receptor (Homo sapiens, UniProt Q03431); assay: In vitro cAMP signal activity in HKRK-B7 cells (LLC-PK1 cells overexpressing the human PTH1 receptor); type: cell-based; details: HKRK-B7 cells; compound at 1×10^−3 M; cAMP produced as percentage of that produced by hPTH(1-34) at 100 nM
T1 sequence (Q03431 27-593): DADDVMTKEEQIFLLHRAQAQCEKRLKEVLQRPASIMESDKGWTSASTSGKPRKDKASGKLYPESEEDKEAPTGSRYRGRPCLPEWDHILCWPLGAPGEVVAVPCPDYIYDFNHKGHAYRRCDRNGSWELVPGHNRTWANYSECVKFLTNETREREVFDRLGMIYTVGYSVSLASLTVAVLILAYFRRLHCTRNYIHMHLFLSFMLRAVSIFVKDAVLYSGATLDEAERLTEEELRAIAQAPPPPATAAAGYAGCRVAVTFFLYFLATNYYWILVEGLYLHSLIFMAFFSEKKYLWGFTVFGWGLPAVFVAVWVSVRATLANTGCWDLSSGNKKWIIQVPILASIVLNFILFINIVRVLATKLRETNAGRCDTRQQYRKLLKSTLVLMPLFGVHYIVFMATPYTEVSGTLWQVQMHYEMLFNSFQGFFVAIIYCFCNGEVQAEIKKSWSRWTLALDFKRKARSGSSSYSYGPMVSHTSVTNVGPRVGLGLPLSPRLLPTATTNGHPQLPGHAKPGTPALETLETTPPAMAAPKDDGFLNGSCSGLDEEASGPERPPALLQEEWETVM

Row | SMILES | cAMP production activity (%)
1 | CCCCCCCCCC1=NC2(CCN(S(=O)(=O)CCc3c(C)cc(N4C(=O)CNC4=O)cc3C)CC2)C(=O)N1 [Compound 832, 3-{3,5-dimethyl-4-[2-(2-nonyl-4-oxo-1,3,8-triaza-spiro[4.5]dec-1-ene-8-sulfonyl)-ethyl]-phenyl}-imidazolidine-2,4-dione] | 84
2 | Cc1cc(N2C(=O)NC(COC(C)(C)C)C2=O)cc(C)c1CCS(=O)(=O)N1CCC2(CC1)N=C([C@H]1CC[C@H](C)CC1)NC2=O (stereo partly shown) [Compound 833, 5-tert-butoxymethyl-3-(3,5-dimethyl-4-{2-[2-(4-methyl-cyclohexyl)-4-oxo-1,3,8-triaza-spiro[4.5]dec-1-ene-8-sulfonyl]-ethyl}-phenyl)-imidazolidine-2,4-dione] | 34
3 | Cc1cc(N2NCCC2=O)ccc1CCS(=O)(=O)N1CCC2(CC1)N=C([C@H]1CC[C@H](C)CC1)NC2=O [Compound 834, 2-(4-methyl-cyclohexyl)-8-{2-[2-methyl-4-(5-oxo-pyrazolidin-1-yl)-phenyl]-ethanesulfonyl}-1,3,8-triaza-spiro[4.5]dec-1-en-4-one] | 76
4 | O=C1NC(C2CCCCC2)=NC12CCN(S(=O)(=O)CCc1cccc3cc[nH]c13)CC2 [Compound 835, 2-Cyclohexyl-8-[2-(1H-indol-7-yl)-ethanesulfonyl]-1,3,8-triaza-spiro[4.5]dec-1-en-4-one] | 50
5 | O=C1NC(C2CCCCC2)=NC12CCN(S(=O)(=O)CCc1cc3cc[nH]c3cc1C(F)(F)F)CC2 [Compound 836, 2-cyclohexyl-8-[2-(6-trifluoromethyl-1H-indol-5-yl)-ethanesulfonyl]-1,3,8-triaza-spiro[4.5]dec-1-en-4-one] | 56
6 | Cc1cc2[nH]ccc2cc1CCS(=O)(=O)N1CCC2(CC1)N=C(C1CCCCC1)NC2=O [Compound 837, 2-cyclohexyl-8-[2-(6-methyl-1H-indol-5-yl)-ethanesulfonyl]-1,3,8-triaza-spiro[4.5]dec-1-en-4-one] | 66
7 | O=C1NC(C2CCCCC2)=NC12CCN(S(=O)(=O)CCc1ccc3c(ccn3CCOCCO)c1)CC2 [Compound 838, 2-cyclohexyl-8-(2-{1-[2-(2-hydroxy-ethoxy)-ethyl]-1H-indol-5-yl}-ethanesulfonyl)-1,3,8-triaza-spiro[4.5]dec-1-en-4-one] | 75
8 | O=C1NC(C2CCCCC2)=NC12CCN(S(=O)(=O)CCc1cc3nc[nH]c3cc1C(F)(F)F)CC2 [Compound 839, 2-cyclohexyl-8-[2-(6-trifluoromethyl-1H-benzimidazol-5-yl)-ethanesulfonyl]-1,3,8-triaza-spiro[4.5]dec-1-en-4-one] | 57
9 | Cc1cc(C(=O)N2CCS(=O)(=O)CC2)ccc1CCS(=O)(=O)N1CCC2(CC1)N=C(C1CCCCC1)NC2=O [Compound 841, 2-cyclohexyl-8-{2-[4-(1,1-dioxo-1λ^6-thiomorpholine-4-carbonyl)-2-methyl-phenyl]-ethanesulfonyl}-1,3,8-triaza-spiro[4.5]dec-1-en-4-one] | 45
10 | Cc1cc(NCCN(C)C)ccc1CCS(=O)(=O)N1CCC2(CC1)N=C(C1CCCCC1)NC2=O [Compound 842, 2-cyclohexyl-8-{2-[4-(2-dimethylamino-ethylamino)-2-methyl-phenyl]-ethanesulfonyl}-1,3,8-triaza-spiro[4.5]dec-1-en-4-one] | 81
11 | Cc1cc(S(=O)(=O)NCCN(C)C)ccc1CCS(=O)(=O)N1CCC2(CC1)N=C(C1CCCCC1)NC2=O [Compound 844, 4-[2-(2-cyclohexyl-4-oxo-1,3,8-triaza-spiro[4.5]dec-1-ene-8-sulfonyl)-ethyl]-N-(2-dimethylamino-ethyl)-3-methyl-benzenesulfonamide] | 86
12 | Cc1cc(S(=O)(=O)NCc2cccnc2)ccc1CCS(=O)(=O)N1CCC2(CC1)N=C(c1cccc(C(F)(F)F)c1)NC2=O [Compound 852, 3-methyl-4-{2-[4-oxo-2-(3-trifluoromethyl-phenyl)-1,3,8-triaza-spiro[4.5]dec-1-ene-8-sulfonyl]-ethyl}-N-pyridin-3-ylmethyl-benzenesulfonamide] | 58
13 | Cc1cc(CCS(=O)(=O)N2CCC3(CC2)N=C(c2cccc(OC(F)(F)F)c2)NC3=O)cc(C)c1OCCC(O)CO (stereo not shown) [Compound 855, 8-{2-[4-(3,4-dihydroxy-butoxy)-3,5-dimethyl-phenyl]-ethanesulfonyl}-2-(3-trifluoromethoxy-phenyl)-1,3,8-triaza-spiro[4.5]dec-1-en-4-one] | 82

More lines, now with the values ahead:

Row | cAMP production activity (%) | SMILES
14 | 4.7 | Cc1cc(C(=O)N2CCC(O)(CO)CC2)cc(C)c1CCS(=O)(=O)N1CCC2(CC1)N=C(c1cccc(OC(F)(F)F)c1)NC2=O [Compound 831, 8-{2-[4-(4-hydroxy-4-hydroxymethyl-piperidine-1-carbonyl)-2,6-dimethyl-phenyl]-ethanesulfonyl}-2-(3-trifluoromethoxy-phenyl)-1,3,8-triaza-spiro[4.5]dec-1-en-4-one]
15 | 98 | O=C1NC(c2cccc(C(F)(F)F)c2)=NC12CCN(S(=O)(=O)CCc1cccc3c1ccn3C[C@H](O)CO)CC2 [Compound 840, 8-{2-[1-((S)-2,3-dihydroxy-propyl)-1H-indol-4-yl]-ethanesulfonyl}-2-(3-trifluoromethyl-phenyl)-1,3,8-triaza-spiro[4.5]dec-1-en-4-one]
16 | 77 | Cc1cc(C(=O)N2CCN(C)CC2)ccc1CCS(=O)(=O)N1CCC2(CC1)N=C(c1cccc(OC(F)(F)F)c1)NC2=O [Compound 843, 8-{2-[2-methyl-4-(4-methyl-piperazine-1-carbonyl)-phenyl]-ethanesulfonyl}-2-(3-trifluoromethoxy-phenyl)-1,3,8-triaza-spiro[4.5]dec-1-en-4-one]
17 | 68 | Cc1cc(NCC(=O)N2CCN(C)CC2)ccc1CCS(=O)(=O)N1CCC2(CC1)N=C(c1cccc(OC(F)(F)F)c1)NC2=O [Compound 845, 8-(2-{2-methyl-4-[2-(4-methyl-piperazin-1-yl)-2-oxo-ethylamino]-phenyl}-ethanesulfonyl)-2-(3-trifluoromethoxy-phenyl)-1,3,8-triaza-spiro[4.5]dec-1-en-4-one]
18 | 47 | Cc1cc(S(=O)(=O)Nc2ccncc2)ccc1CCS(=O)(=O)N1CCC2(CC1)N=C(c1cccc(OC(F)(F)F)c1)NC2=O [Compound 846, 3-methyl-4-{2-[4-oxo-2-(3-trifluoromethoxy-phenyl)-1,3,8-triaza-spiro[4.5]dec-1-ene-8-sulfonyl]-ethyl}-N-pyridin-4-yl-benzenesulfonamide]
19 | 71 | Cc1cc(NCC(N)=O)ccc1CCS(=O)(=O)N1CCC2(CC1)N=C(c1cccc(OC(F)(F)F)c1)NC2=O [Compound 847, 2-(3-methyl-4-{2-[4-oxo-2-(3-trifluoromethoxy-phenyl)-1,3,8-triaza-spiro[4.5]dec-1-ene-8-sulfonyl]-ethyl}-phenylamino)-acetamide]
20 | 77 | Cc1cc(S(=O)(=O)NC2CCN(Cc3ccccc3)CC2)ccc1CCS(=O)(=O)N1CCC2(CC1)N=C(c1cccc(OC(F)(F)F)c1)NC2=O [Compound 848, N-(1-benzyl-piperidin-4-yl)-3-methyl-4-{2-[4-oxo-2-(3-trifluoromethoxy-phenyl)-1,3,8-triaza-spiro[4.5]dec-1-ene-8-sulfonyl]-ethyl}-benzenesulfonamide]
21 | 124 | Cc1cc(C(=O)N2CCN(C(C)C)CC2)ccc1CCS(=O)(=O)N1CCC2(CC1)N=C(c1cccc(OC(F)(F)F)c1)NC2=O [Compound 849, 8-{2-[4-(4-isopropyl-piperazine-1-carbonyl)-2-methyl-phenyl]-ethanesulfonyl}-2-(3-trifluoromethoxy-phenyl)-1,3,8-triaza-spiro[4.5]dec-1-en-4-one]
22 | 82 | O=C1NC(c2cccc(OC(F)(F)F)c2)=NC12CCN(S(=O)(=O)CCc1ccc3c(ccn3C[C@H](O)CO)c1)CC2 [Compound 850, 8-{2-[1-((S)-2,3-dihydroxy-propyl)-1H-indol-5-yl]-ethanesulfonyl}-2-(3-trifluoromethoxy-phenyl)-1,3,8-triaza-spiro[4.5]dec-1-en-4-one]
23 | 83 | Cc1cc(S(=O)(=O)NC[C@@H](O)CO)ccc1CCS(=O)(=O)N1CCC2(CC1)N=C(c1cccc(OC(F)(F)F)c1)NC2=O [Compound 851, N—((R)-2,3-dihydroxy-propyl)-3-methyl-4-{2-[4-oxo-2-(3-trifluoromethoxy-phenyl)-1,3,8-triaza-spiro[4.5]dec-1-ene-8-sulfonyl]-ethyl}-benzenesulfonamide]
24 | 63 | Cc1cc(S(=O)(=O)NC2CCC(O)CC2)ccc1CCS(=O)(=O)N1CCC2(CC1)N=C(c1cccc(C(F)(F)F)c1)NC2=O (stereo not shown) [Compound 853, N-(4-hydroxy-cyclohexyl)-3-methyl-4-{2-[4-oxo-2-(3-trifluoromethyl-phenyl)-1,3,8-triaza-spiro[4.5]dec-1-ene-8-sulfonyl]-ethyl}-benzenesulfonamide]
25 | 80 | Cc1cc(S(=O)(=O)NC(CO)(CO)CO)ccc1CCS(=O)(=O)N1CCC2(CC1)N=C(c1cccc(C(F)(F)F)c1)NC2=O [Compound 854, N-(2-hydroxy-1,1-bis-hydroxymethyl-ethyl)-3-methyl-4-{2-[4-oxo-2-(3-trifluoromethyl-phenyl)-1,3,8-triaza-spiro[4.5]dec-1-ene-8-sulfonyl]-ethyl}-benzenesulfonamide]
